Columns and labels:
Human SSAO = target: T1, Human SSAO (Homo sapiens, UniProt Q16853); experiment: SSAO activity, hydrogen peroxide production relative to benzylamine (human); type: biochemical; settings: compound at 1 mM
T1 sequence (Q16853 1-763): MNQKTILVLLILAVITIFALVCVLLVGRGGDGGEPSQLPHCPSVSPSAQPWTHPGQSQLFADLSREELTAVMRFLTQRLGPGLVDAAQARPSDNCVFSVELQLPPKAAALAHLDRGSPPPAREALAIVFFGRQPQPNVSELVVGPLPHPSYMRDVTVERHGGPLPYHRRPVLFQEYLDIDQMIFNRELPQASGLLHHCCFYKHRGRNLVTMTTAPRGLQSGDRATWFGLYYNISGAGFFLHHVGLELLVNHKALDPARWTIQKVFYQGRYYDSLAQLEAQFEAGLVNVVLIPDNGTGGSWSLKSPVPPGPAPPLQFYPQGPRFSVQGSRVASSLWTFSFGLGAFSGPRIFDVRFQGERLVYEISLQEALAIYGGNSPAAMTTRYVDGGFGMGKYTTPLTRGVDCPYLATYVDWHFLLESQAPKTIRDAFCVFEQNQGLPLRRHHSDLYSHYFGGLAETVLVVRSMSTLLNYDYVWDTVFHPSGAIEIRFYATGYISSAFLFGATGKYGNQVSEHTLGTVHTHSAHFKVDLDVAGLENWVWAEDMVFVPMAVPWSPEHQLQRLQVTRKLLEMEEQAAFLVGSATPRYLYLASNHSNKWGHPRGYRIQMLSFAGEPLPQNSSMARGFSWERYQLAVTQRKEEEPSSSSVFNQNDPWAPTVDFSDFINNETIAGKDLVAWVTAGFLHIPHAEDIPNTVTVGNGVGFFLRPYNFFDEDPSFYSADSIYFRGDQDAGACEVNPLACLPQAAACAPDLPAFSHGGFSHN
Protocol: (§1) The continuous spectrophotometric detection of SSAO-dependent H2O2 production based on a peroxidase-coupled reaction was performed as previously described by Abella et al. (2004, Diabetologia 47: 429-438) and following the procedure described by Holt et al., (1997, Anal. Biochem. 244: 384-392).
(§2) Compounds listed in Table 1 were prepared according to the methods described above, purity was determined by HPLC at 220 nm, molecular weight calculated by mass spectrometer. Human and mouse SSAO activity was determined by detecting the production of hydrogene peroxide in the presence of the different compounds present at 1 mM for human and 100 μM for mice activity measurements. Compounds in Table 2″ were similarly assayed. Values are means of percentages relative to benzylamine-related hydrogen production. Kinetic Parameters for select compounds are set forth in Table 3 (Mouse SSAO) and Table 4 (Human SSAO).

mouse SSAO = target: T2, mouse SSAO (Mus musculus, UniProt O70423); experiment: SSAO activity, hydrogen peroxide production relative to benzylamine (mouse); type: biochemical; settings: compound at 100 μM
T2 sequence (O70423 1-765): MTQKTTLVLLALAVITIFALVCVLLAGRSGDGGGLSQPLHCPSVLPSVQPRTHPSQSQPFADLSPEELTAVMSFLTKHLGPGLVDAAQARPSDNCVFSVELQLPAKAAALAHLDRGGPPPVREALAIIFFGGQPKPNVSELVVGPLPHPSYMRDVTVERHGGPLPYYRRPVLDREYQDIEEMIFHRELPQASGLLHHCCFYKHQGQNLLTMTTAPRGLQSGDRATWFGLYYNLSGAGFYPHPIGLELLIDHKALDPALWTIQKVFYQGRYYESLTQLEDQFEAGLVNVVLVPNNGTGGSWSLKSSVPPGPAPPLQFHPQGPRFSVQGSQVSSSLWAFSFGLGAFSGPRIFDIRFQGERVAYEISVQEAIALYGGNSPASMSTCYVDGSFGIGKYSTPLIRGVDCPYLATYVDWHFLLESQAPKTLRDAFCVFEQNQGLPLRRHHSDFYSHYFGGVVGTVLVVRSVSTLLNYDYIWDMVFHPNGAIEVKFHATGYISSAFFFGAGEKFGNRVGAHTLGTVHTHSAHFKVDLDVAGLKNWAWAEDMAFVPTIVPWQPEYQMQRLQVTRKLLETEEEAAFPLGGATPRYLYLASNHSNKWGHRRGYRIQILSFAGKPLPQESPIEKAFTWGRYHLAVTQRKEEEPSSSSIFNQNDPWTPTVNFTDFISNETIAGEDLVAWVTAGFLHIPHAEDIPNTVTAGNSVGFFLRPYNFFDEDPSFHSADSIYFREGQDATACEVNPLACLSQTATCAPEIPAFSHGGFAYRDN
Protocol: as §1, §2

`CC(C)c1ccc(CN)cc1` [Entry 7, (4-isopropylphenyl)methanamine] was tested, and the “SSAO activity (% relative to benzylamine) Human” value (Human SSAO) was 0.00% and the “SSAO activity (% relative to benzylamine) Mouse” value (mouse SSAO) was 0.00%.

`NCCc1ccc(O)c(O)c1` [Entry 47, 4-(2-aminoethyl)benzene-1,2-diol] was tested, and the “SSAO activity (% relative to benzylamine) Human” value (Human SSAO) was 0.00% and the “SSAO activity (% relative to benzylamine) Mouse” value (mouse SSAO) was 0.00%.

For `NCCCc1ccccc1` [Entry 42, 3-phenylpropan-1-amine], the “SSAO activity (% relative to benzylamine) Human” value (Human SSAO) was 60.30% and the “SSAO activity (% relative to benzylamine) Mouse” value (mouse SSAO) was 44.80%.

In the case of `NCc1ccc(CN)cc1` [Entry 25, 1,4-phenylene dimethanamine], the “SSAO activity (% relative to benzylamine) Human” value (Human SSAO) is reported as 0.00% and the “SSAO activity (% relative to benzylamine) Mouse” value (mouse SSAO) is reported as 0.00%.

`NCc1cccc2c1OCCO2` [Entry 21, (2,3-dihydrobenzo-[b][1,4]dioxin-5-yl)methanamine] was tested, and the “SSAO activity (% relative to benzylamine) Human” value (Human SSAO) was 0.00% and the “SSAO activity (% relative to benzylamine) Mouse” value (mouse SSAO) was 12.36%.

With `NCc1ccccc1` [Entry 1, Benzylamine, reference compound] the “SSAO activity (% relative to benzylamine) Human” value (Human SSAO) was 100% and the “SSAO activity (% relative to benzylamine) Mouse” value (mouse SSAO) was 100%.

`CCc1ccc(CN)cc1` [Entry 5] was tested, and the “SSAO activity (% relative to benzylamine) Human” value (Human SSAO) was 0.00% and the “SSAO activity (% relative to benzylamine) Mouse” value (mouse SSAO) was 17.30%.

`NCc1cccc(CN)c1` [Entry 26, 1,3-phenylene dimethanamine] was tested, and the “SSAO activity (% relative to benzylamine) Human” value (Human SSAO) was 0.00% and the “SSAO activity (% relative to benzylamine) Mouse” value (mouse SSAO) was 0.00%.

With `COc1cccc2[nH]cc(CN)c12` [Entry 45, (4-methoxy-1H-indol-3-yl)methanamine] the “SSAO activity (% relative to benzylamine) Human” value (Human SSAO) was 0.00% and the “SSAO activity (% relative to benzylamine) Mouse” value (mouse SSAO) was 5.54%.

With `COc1ccc(CN)c(OC)c1` [Entry 10, (2,4-dimethoxyphenyl)methanamine] the “SSAO activity (% relative to benzylamine) Human” value (Human SSAO) was 0.00% and the “SSAO activity (% relative to benzylamine) Mouse” value (mouse SSAO) was 0.00%.

In the case of `NCCc1ccccc1` [Entry 41, 2-phenylethanamine], the “SSAO activity (% relative to benzylamine) Human” value (Human SSAO) is reported as 8.20% and the “SSAO activity (% relative to benzylamine) Mouse” value (mouse SSAO) is reported as 6.80%.

For `CCCCc1ccc(CN)cc1` [Entry 11, (4-butylphenyl)methanamine], the “SSAO activity (% relative to benzylamine) Human” value (Human SSAO) was 0.00% and the “SSAO activity (% relative to benzylamine) Mouse” value (mouse SSAO) was 27.00%.

In the case of `NCc1ccc(OCc2ccccc2)cc1` [Entry 20, (4-(benzyloxy)phenyl)methanamine], the “SSAO activity (% relative to benzylamine) Human” value (Human SSAO) is reported as 0.0% and the “SSAO activity (% relative to benzylamine) Mouse” value (mouse SSAO) is reported as 0.0%.

`NCc1ccc(OC(F)(F)F)cc1` [Entry 9, (4-(trifluoromethoxy)phenyl)methanamine] was tested, and the “SSAO activity (% relative to benzylamine) Human” value (Human SSAO) was 0.00% and the “SSAO activity (% relative to benzylamine) Mouse” value (mouse SSAO) was 66.20%.

In the case of `COc1cc(F)cc(CN)c1` [Entry 17, (3-fluoro-5-methoxyphenyl)methanamine], the “SSAO activity (% relative to benzylamine) Human” value (Human SSAO) is reported as 2.53% and the “SSAO activity (% relative to benzylamine) Mouse” value (mouse SSAO) is reported as 4.86%.

`NCc1ccc(O)c(Br)c1` [Entry 13, 4-(aminomethyl)-2-bromophenol] was tested, and the “SSAO activity (% relative to benzylamine) Human” value (Human SSAO) was 0.00% and the “SSAO activity (% relative to benzylamine) Mouse” value (mouse SSAO) was 0.00%.

`COc1ccc(CCN)cc1OC` [Entry 48, 2-(3,4-dimethoxyphenyl)ethanamine] was tested, and the “SSAO activity (% relative to benzylamine) Human” value (Human SSAO) was 0.00% and the “SSAO activity (% relative to benzylamine) Mouse” value (mouse SSAO) was 3.80%.

With `NCc1ccc(-c2ccccc2)cc1` [Entry 15, biphenyl-4-yl-methanamine] the “SSAO activity (% relative to benzylamine) Human” value (Human SSAO) was 0.00% and the “SSAO activity (% relative to benzylamine) Mouse” value (mouse SSAO) was 3.77%.

With `COc1ccc(CN)cc1` [Entry 22, (4-methoxyphenyl)methanamine] the “SSAO activity (% relative to benzylamine) Human” value (Human SSAO) was 0.00% and the “SSAO activity (% relative to benzylamine) Mouse” value (mouse SSAO) was 4.56%.

From patent US20070066682A1, “Arylalkylamine vanadium (V) salts for the treatment and/or prevention of Diabetes mellitus” (priority 2005, published 2007)
